This assay deals with T1, YTHDF2 (YTH N6-methyladenosine RNA binding protein F2) (Homo sapiens, UniProt Q9Y5A9).
T1 construct: recombinant protein of YTHDF2 (NCBI: 51441)
T1 sequence (Q9Y5A9 2-579): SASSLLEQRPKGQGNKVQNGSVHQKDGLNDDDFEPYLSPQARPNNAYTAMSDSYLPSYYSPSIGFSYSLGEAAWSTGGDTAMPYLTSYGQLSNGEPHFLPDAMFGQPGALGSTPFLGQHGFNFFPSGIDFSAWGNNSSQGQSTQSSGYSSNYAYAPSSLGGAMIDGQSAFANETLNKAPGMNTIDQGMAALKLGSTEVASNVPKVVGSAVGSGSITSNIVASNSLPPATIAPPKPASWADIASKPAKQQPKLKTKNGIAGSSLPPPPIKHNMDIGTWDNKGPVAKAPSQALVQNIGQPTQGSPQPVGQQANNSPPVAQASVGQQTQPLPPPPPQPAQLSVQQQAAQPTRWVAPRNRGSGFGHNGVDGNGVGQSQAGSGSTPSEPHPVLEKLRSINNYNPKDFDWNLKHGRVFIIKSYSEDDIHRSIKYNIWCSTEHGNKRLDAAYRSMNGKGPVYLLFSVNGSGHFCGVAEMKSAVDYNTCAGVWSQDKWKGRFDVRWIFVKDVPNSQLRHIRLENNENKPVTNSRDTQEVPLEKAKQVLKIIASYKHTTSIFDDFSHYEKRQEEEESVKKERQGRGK
Description: SPR on immobilised recombinant YTHDF2; also ITC, THM-bead pull-down, CETSA, LC-MS/MS.

`CCCc1ccc(O)c(-c2cc(CCC)ccc2O)c1` [Tetrahydromagnolol]: the equilibrium dissociation constant (Kd) (in general, a measure of binding affinity in units of concentration) was determined as 22 µM.

The record behind these values is publication PMC12316034, “Tetrahydromagnolol induces autophagic cell death by targeting the m^6A reader protein YTHDF2 and enhances the efficacy of anti-PD-1 immunotherapy in pancreatic cancer cells” (Theranostics, 2025).
